Measurements: US20210309649A1, “SUBSTITUTED GLUTARIMIDE DERIVATIVES” (BASF SE, priority 2018, published 2021)

Key:
Assay type in all cases: in vivo
Euschistus heros = assay: Neotropical brown stink bug (Euschistus heros) soybean pod spray test; details: 120 h, read-out: mortality in comparison with untreated controls
Procedure: (§1) The active compound was dissolved at the desired concentration in a mixture of 1:1 (vol:vol) distilled water:acetone. Surfactant (Kinetic HV) was added at a rate of 0.01% (vol/vol). The test solution was prepared at the day of use.
Soybean pods were placed in microwavable plastic cups and inoculated with ten adult stage E. heros. Using a hand atomizer, approximately 1 ml solution is sprayed into each cup, insects and food present. A water source was provided (cotton wick with water). Each treatment was replicated 2-fold. Assay arenas were kept at about 25° C. Percent mortality was recorded after 5 days.

Dichromothrips corbetti = assay: Orchid thrips (Dichromothrips corbetti) floral-immersion test; details: 72 h, read-out: mortality in comparison with untreated controls
Procedure: Dichromothrips corbetti adults used for bioassay were obtained from a colony maintained continuously under laboratory conditions. For testing purposes, the test compound is diluted in a 1:1 mixture of acetone:water (vol:vol), plus Kinetic HV at a rate of 0.01% v/v.
Thrips potency of each compound was evaluated by using a floral-immersion technique. All petals of individual, intact orchid flowers were dipped into treatment solution and allowed to dry in Petri dishes. Treated petals were placed into individual re-sealable plastic along with about 20 adult thrips. All test arenas were held under continuous light and a temperature of about 28° C. for duration of the assay. After 3 days, the numbers of live thrips were counted on each petal. The percent mortality was recorded 72 hours after treatment.

Halyomorpha halys = assay: Brown marmorated stink bug (Halyomorpha halys) spray test; details: in Glycine max, 120 h, read-out: mortality in comparison with untreated controls
Procedure: as §1
Row peanuts and soybean seeds were placed into microwavable plastic cups and inoculated with five adult stage H. halys. Using a hand atomizer, approximately 1 ml solution is sprayed into each cup, insects and food present. A water source was provided (cotton wick with water).
Each treatment is replicated 4-fold. Assay arenas are kept at about 25° C. Percent mortality was recorded after 5 days.

Myzus persicae = assay: Green peach aphid (Myzus persicae) systemic artificial diet test; details: 72 h, read-out: mortality in comparison with untreated controls
Text: For evaluating control of green peach aphid (Myzus persicae) through systemic means the test unit consisted of 96-well-microtiter plates containing liquid artificial diet under an artificial mem brane.
The compounds were formulated using a solution containing 75% v/v water and 25% v/v DMSO. Different concentrations of formulated compounds were pipetted into the aphid diet, using a custom built pipetter, at two replications.
After application, 5-8 adult aphids were placed on the artificial membrane inside the microtiter plate wells. The aphids were then allowed to suck on the treated aphid diet and incubated at about 23±1° C. and about 50±5% relative humidity for 3 days. Aphid mortality and fecundity was then visually assessed.

Nephotettix virescens = assay: Rice green leafhopper (Nephotettix virescens) rice seedling spray test; details: 72 h, read-out: mortality in comparison with untreated controls
Procedure: Rice seedlings were cleaned and washed 24 hours before spraying. The active compounds were formulated in 1:1 acetone:water (vol:vol), and 0.01% vol/vol surfactant (Kinetic HV) was added. Potted rice seedlings were sprayed with 5-6 ml test solution, air dried, covered with Mylar cages and inoculated with 10 adults. Treated rice plants were kept at about 28-29° C. and relative humidity of about 50-60%. Percent mortality was recorded after 72 hours.

Plutella xylostella = assay: Diamond back moth (Plutella xylostella) cabbage leaf dip test; details: foliar, 72 h, read-out: mortality in comparison with untreated controls
Procedure: The active compound was dissolved at the desired concentration in a mixture of 1:1 (vol:vol) distilled water:aceteone. Surfactant (Kinetic HV) was added at a rate of 0.01% (vol/vol). The test solution was prepared at the day of use.
Leaves of cabbage were dipped in test solution and air-dried. Treated leaves were placed in petri dishes lined with moist filter paper and inoculated with ten 3rd instar larvae. Mortality was recorded 72 hours after treatment. Feeding damages were also recorded using a scale of 0-100%.

Tetranychus kanzawai = assay: Red spider mite (Tetranychus kanzawai) cowpea bean spray test; details: 72 h, read-out: mortality in comparison with untreated controls
Procedure: The active compound was dissolved at the desired concentration in a mixture of 1:1 (vol:vol) distilled water:acetone. Add surfactant (Kinetic HV) was added at a rate of 0.01% (vol/vol). The test solution was prepared at the day of use.
Potted cowpea beans of 4-5 days of age were cleaned with tap water and sprayed with 1-2 ml of the test solution using air driven hand atomizer. The treated plants were allowed to air dry and afterwards inoculated with 30 or more mites by clipping a cassava leaf section from rearing population. Treated plants were placed inside a holding room at about 25-27° C. and about 50-60% relative humidity. Percent mortality was assessed 72 hours after treatment.

Megoura viciae = assay: Vetch aphid (Megoura viciae) leaf disk test; details: foliar, 120 h, read-out: mortality in comparison with untreated controls
Procedure: For evaluating control of vetch aphid (Megoura viciae) through contact or systemic means the test unit consisted of 24-well-microtiter plates containing broad bean leaf disks.
The compounds were formulated using a solution containing 75% v/v water and 25% v/v DMSO. Different concentrations of formulated compounds were sprayed onto the leaf disks at 2.5 μl, using a custom built micro atomizer, at two replications.
After application, the leaf disks were air-dried and 5-8 adult aphids placed on the leaf disks inside the microtiter plate wells. The aphids were then allowed to suck on the treated leaf disks and incubated at about 23±1° C. and about 50±5% relative humidity for 5 days. Aphid mortality and fecundity was then visually assessed.

Anthonomus grandis = assay: Boll weevil (Anthonomus grandis) insect diet test; details: 120 h, read-out: mortality in comparison with untreated controls
Procedure: For evaluating control of boll weevil (Anthonomus grandis) the test unit consisted of 96-well-microtiter plates containing an insect diet and 5-10 A. grandis eggs.
The compounds were formulated using a solution containing 75% v/v water and 25% v/v DMSO. Different concentrations of formulated compounds were sprayed onto the insect diet at 5 μl, using a custom built micro atomizer, at two replications.
After application, microtiter plates were incubated at about 25±1° C. and about 75±5% relative humidity for 5 days. Egg and larval mortality was then visually assessed.

Heliothis virescens = assay: Tobacco budworm (Heliothis virescens) insect diet test; details: 120 h, read-out: mortality in comparison with untreated controls
Procedure: For evaluating control of tobacco budworm (Heliothis virescens) the test unit consisted of 96-well-microtiter plates containing an insect diet and 15-25 H. virescens eggs.
The compounds were formulated using a solution containing 75% v/v water and 25% v/v DMSO. Different concentrations of formulated compounds were sprayed onto the insect diet at 10 μl, using a custom built micro atomizer, at two replications.
After application, microtiter plates were incubated at about 28±1° C. and about 80±5% relative humidity for 5 days. Egg and larval mortality was then visually assessed.

Nezara viridula = assay: Green soldier stink bug (Nezara viridula) soybean pod spray test; details: 120 h, read-out: mortality in comparison with untreated controls
Procedure: The active compound was dissolved at the desired concentration in a mixture of 1:1 (vol:vol) distilled water:acetone. Surfactant (Kinetic HV) was added at a rate of 0.01% (vol/vol). The test solution was prepared at the day of use. Soybean pods were placed in glass Petri dishes lined with moist filter paper and inoculated with ten late 3rd instar N. viridula. Using a hand atomizer, approximately 2 ml solution is sprayed into each Petri dish. Assay arenas were kept at about 25° C. Percent mortality was recorded after 5 days.

Spodoptera eridania = assay: Southern armyworm (Spodoptera eridania) lima bean foliar spray test; details: 96 h, read-out: mortality in comparison with untreated controls
Procedure: The active compounds were formulated in cyclohexanone as a 10,000 ppm solution supplied in tubes. The tubes were inserted into an automated electrostatic sprayer equipped with an atomizing nozzle and they served as stock solutions for which lower dilutions were made in 50% acetone:50% water (v/v). A nonionic surfactant (Kinetic®) was included in the solution at a volume of 0.01% (v/v).
Lima bean plants (variety Sieva) were grown 2 plants to a pot and selected for treatment at the 1st true leaf stage. Test solutions were sprayed onto the foliage by an automated electrostatic plant sprayer equipped with an atomizing spray nozzle. The plants were dried in the sprayer fume hood and then removed from the sprayer. Each pot was placed into perforated plastic bags with a zip closure. About 10 to 11 armyworm larvae were placed into the bag and the bags zipped closed. Test plants were maintained in a growth room at about 25° C. and about 20-40% relative humidity for 4 days, avoiding direct exposure to fluorescent light (24 hour photoperiod) to prevent trapping of heat inside the bags. Mortality and reduced feeding were assessed 4 days after treatment, compared to untreated control plants.

CN1C(=O)CC[C@@H](NC(=O)c2ccc(C3=NOC(c4cc(Cl)c(F)c(Cl)c4)(C(F)(F)F)C3)cc2Cl)C1=O (stereo partly drawn) [Compound 1-1, 2-chloro-4[5-(3,5-dichloro-4-fluoro-phenyl)-5-(trifluoromethyl)-4H-isoxazol-3-yl]-N-[(3R)-1-methyl-2,6-dioxo-3-piperidyl]benzamide]
> 75%: mortality at 500 ppm (Euschistus heros) | mortality at 300 ppm (Dichromothrips corbetti) | mortality at 100 ppm (Halyomorpha halys) | mortality at 2500 ppm (Myzus persicae) | mortality at 300 ppm (Nephotettix virescens) | mortality at 300 ppm (Plutella xylostella) | mortality at 300 ppm (Tetranychus kanzawai) | mortality at 2500 ppm (Megoura viciae) | mortality at 2500 ppm (Anthonomus grandis) | mortality at 2500 ppm (Heliothis virescens) | mortality at 300 ppm (Nezara viridula) | mortality at 10 ppm (Spodoptera eridania)

Cc1cc(C2=NOC(c3cc(Cl)cc(Cl)c3)(C(F)(F)F)C2)ccc1C(=O)N[C@@H]1CCC(=O)N(CC(F)F)C1=O (stereo partly drawn) [Compound 1-18, 4-[5-(3,5-dichlorophenyl)-5-(trifluoromethyl)-4H-isoxazol-3-yl]-N-[(3R)-1-(2,2-difluoroethyl)-2,6-dioxo-3-piperidyl]-2-methyl-benzamide]
> 75%: mortality at 500 ppm (Euschistus heros) | mortality at 300 ppm (Dichromothrips corbetti) | mortality at 100 ppm (Halyomorpha halys) | mortality at 2500 ppm (Myzus persicae) | mortality at 300 ppm (Nephotettix virescens) | mortality at 300 ppm (Plutella xylostella) | mortality at 300 ppm (Tetranychus kanzawai) | mortality at 2500 ppm (Megoura viciae) | mortality at 2500 ppm (Anthonomus grandis) | mortality at 2500 ppm (Heliothis virescens) | mortality at 300 ppm (Nezara viridula)
